The source of these data is patent US11591336B2 (Relay Therapeutics, Inc., priority 2017, dated 2023).

Molecules are shown by their SMILES. Structures can show the parent of a compound that is named as a salt. Some results are limits rather than exact numbers.

What is called IC50 is the concentration that gives 50% inhibition. Read a low IC50 as greater potency in that assay.

This assay deals with SHP2 (Homo sapiens (Human), UniProt Q06124). Kind of assay: SHP2 Allosteric Inhibition Assay (DiFMUP prompt fluorescence). Format: biochemical. Particulars: 0.25 nM SHP2 activated with 0.5 μM peptide IRS1_pY1172(dPEG8)pY1222; substrate DiFMUP 100 μM; 25° C.
Sequence of SHP2 (Q06124 whole entry): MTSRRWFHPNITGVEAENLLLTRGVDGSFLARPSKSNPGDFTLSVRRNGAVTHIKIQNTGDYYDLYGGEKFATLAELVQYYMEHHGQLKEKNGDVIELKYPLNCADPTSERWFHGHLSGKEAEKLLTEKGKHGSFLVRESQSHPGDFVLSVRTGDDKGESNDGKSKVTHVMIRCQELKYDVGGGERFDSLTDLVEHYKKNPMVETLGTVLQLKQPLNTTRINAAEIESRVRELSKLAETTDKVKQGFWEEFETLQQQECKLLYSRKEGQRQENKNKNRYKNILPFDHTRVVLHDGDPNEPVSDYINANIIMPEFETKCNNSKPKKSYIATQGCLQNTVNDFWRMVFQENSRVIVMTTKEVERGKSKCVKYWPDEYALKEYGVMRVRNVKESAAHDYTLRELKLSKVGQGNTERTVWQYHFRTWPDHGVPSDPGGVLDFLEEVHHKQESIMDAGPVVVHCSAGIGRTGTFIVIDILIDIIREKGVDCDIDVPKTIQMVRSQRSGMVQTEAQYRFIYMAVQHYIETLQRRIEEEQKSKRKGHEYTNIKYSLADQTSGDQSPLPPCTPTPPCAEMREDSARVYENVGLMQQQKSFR
Molecule `C[C@@H]1OCC2(CCN(c3cnc4c(N5CCCc6c5cccc6N5CCCS5(=O)=O)n[nH]c4n3)CC2)[C@@H]1N` [Compound 392] came in with an IC50 below 1000 nM.
`C[C@@H]1OCC2(CCN(c3cnc4c(N5CCCc6sccc65)n[nH]c4n3)CC2)[C@@H]1N` [Compound 394] showed an IC50 below 1000 nM.
Next, `C[C@@H]1OCC2(CCN(c3cnc4c(N5CCN(C)c6cc(-c7ncco7)ccc65)n[nH]c4n3)CC2)[C@@H]1N` [Compound 395]: below 1000 nM; `C[C@@H]1OCC2(CCN(c3cnc4c(N5CCCc6nc(C7=CCCCC7)ccc65)n[nH]c4n3)CC2)[C@@H]1N` [Compound 396, (3S,4S)-8-{3-[6-(cyclohex-1-en-1-yl)-1,2,3,4-tetrahydro-1,5-naphthyridin-1-yl]-1H-pyrazolo[3,4-b]pyrazin-6-yl}-3-methyl-2-oxa-8-azaspiro[4.5]decan-4-amine hydrochloride]: below 1000 nM; `C/C(=N/O)c1ccc2c(n1)CCCN2c1n[nH]c2nc(N3CCC4(CC3)CO[C@@H](C)[C@H]4N)cnc12` [Compound 397, (3,4S)-8-(3-{6-[(1Z)-1-(hydroxyimino)ethyl]-1,2,3,4-tetrahydro-1,5-naphthyridin-1-yl}-1H-pyrazolo[3,4-b]pyrazin-6-yl)-3-methyl-2-oxa-8-azaspiro[4.5]decan-4-amine]: below 1000 nM.
In turn, `C[C@@H]1OCC2(CCN(c3cnc4c(N5CCN(C6COC6)c6cc(C#N)ccc65)n[nH]c4n3)CC2)[C@@H]1N` [Compound 398] had an IC50 below 1000 nM.
On to `CNC(=O)CN1CCN(c2n[nH]c3nc(N4CCC5(CC4)CO[C@@H](C)[C@H]5N)cnc23)c2ccc(C#N)cc21` [Compound 399], for which the IC50 is below 1000 nM.
The result for `C[C@@H]1OCC2(CCN(c3cnc4c(N5CCCc6c([C@H]7CCOC7)cccc65)n[nH]c4n3)CC2)[C@@H]1N` [Compound 400] reads below 1000 nM; that for `C[C@@H]1OCC2(CCN(c3cnc4c(N5CCCc6c([C@@H]7CCOC7)cccc65)n[nH]c4n3)CC2)[C@@H]1N` [Compound 401], below 1000 nM.
Next, `C[C@@H]1OCC2(CCN(c3cnc4c(N5CCN([C@H]6CCOC6)c6cc(C#N)ccc65)n[nH]c4n3)CC2)[C@@H]1N` [Compound 402]: below 1000 nM; `C[C@@H]1OCC2(CCN(c3cnc4c(N5CCN([C@@H]6CCOC6)c6cc(C#N)ccc65)n[nH]c4n3)CC2)[C@@H]1N` [Compound 403]: below 1000 nM; `CNC(=O)c1nccc2c1CCCN2c1n[nH]c2nc(N3CCC4(CC3)CO[C@@H](C)[C@H]4N)cnc12` [Compound 404, 1-{6-[(3S,4S)-4-amino-3-methyl-2-oxa-8-azaspiro[4.5]decan-8-yl]-1H-pyrazolo[3,4-b]pyrazin-3-yl}-N-methyl-1,2,3,4-tetrahydro-1,6-naphthyridine-5-carboxamide]: below 1000 nM.
Next, `CCN1CCN(c2n[nH]c3nc(N4CCC5(CC4)CO[C@@H](C)[C@H]5N)cnc23)c2ccc(C#N)cc21` [Compound 405]: below 1000 nM.
`COCCN1CCN(c2n[nH]c3nc(N4CCC5(CC4)CO[C@@H](C)[C@H]5N)cnc23)c2ccc(C#N)cc21` [Compound 406] showed an IC50 below 1000 nM.
Next, `Cc1nnc(-c2ccc3c(n2)CCCN3c2n[nH]c3nc(N4CCC5(CC4)CO[C@@H](C)[C@H]5N)cnc23)s1` [Compound 407]: below 1000 nM; `C[C@@H]1OCC2(CCN(c3cnc4c(N5CCN(CCS(C)(=O)=O)c6cc(C#N)ccc65)n[nH]c4n3)CC2)[C@@H]1N` [Compound 408]: below 1000 nM.
Next, `CC(C)N1CCN(c2n[nH]c3nc(N4CCC5(CC4)CO[C@@H](C)[C@H]5N)cnc23)c2ccc(C#N)cc21` [Compound 409]: below 1000 nM; `C#Cc1ccc2c(n1)CCCN2c1n[nH]c2nc(N3CCC4(CC3)CO[C@@H](C)[C@H]4N)cnc12` [Compound 410]: below 1000 nM; `C[C@@H]1OCC2(CCN(c3cnc4c(N5CCN([C@H]6C[C@H](O)C6)c6cc(C#N)ccc65)n[nH]c4n3)CC2)[C@@H]1N` [Compound 411]: below 1000 nM.
The result for `C[C@@H]1OCC2(CCN(c3cnc4c(N5CCN([C@H]6C[C@@H](O)C6)c6cc(C#N)ccc65)n[nH]c4n3)CC2)[C@@H]1N` [Compound 412] reads below 1000 nM.
`C[C@@H]1OCC2(CCN(c3cnc4c(N5CCN(C)c6nnccc65)n[nH]c4n3)CC2)[C@@H]1N` [Compound 413] had an IC50 below 1000 nM.
Molecule `C[C@@H]1OCC2(CCN(c3cnc4c(N5CCN(C)c6cnncc65)n[nH]c4n3)CC2)[C@@H]1N` [Compound 414] had an IC50 of 1000 to 10000 nM.
The result for `C[C@@H]1OCC2(CCN(c3cnc4c(N5CCN(C)c6cc(-c7nccs7)ccc65)n[nH]c4n3)CC2)[C@@H]1N` [Compound 415] reads below 1000 nM; that for `C[C@@H]1OCC2(CCN(c3cnc4c(N5CCCc6c5ccnc6S(C)(=O)=O)n[nH]c4n3)CC2)[C@@H]1N` [Compound 416], below 1000 nM.
Next, `C[C@@H]1OCC2(CCN(c3cnc4c(N5CCCc6c(N=S(C)(C)=O)cccc65)n[nH]c4n3)CC2)[C@@H]1N` [Compound 418]: below 1000 nM; `CN=[S@](C)(=O)c1cccc2c1CCCN2c1n[nH]c2nc(N3CCC4(CC3)CO[C@@H](C)[C@H]4N)cnc12` [Compound 419]: below 1000 nM.
Next, `CN=[S@@](C)(=O)c1cccc2c1CCCN2c1n[nH]c2nc(N3CCC4(CC3)CO[C@@H](C)[C@H]4N)cnc12` [Compound 420]: below 1000 nM; `C[C@@H]1OCC2(CCN(c3cnc4c(N5CCCc6c5cccc6[S@@](C)(=N)=O)n[nH]c4n3)CC2)[C@@H]1N` [Compound 421]: below 1000 nM; `C[C@@H]1OCC2(CCN(c3cnc4c(N5CCCc6c5cccc6[S@](C)(=N)=O)n[nH]c4n3)CC2)[C@@H]1N` [Compound 422]: below 1000 nM.
`C[C@@H]1OCC2(CCN(c3cnc4c(N5CCN(CC(=O)O)c6cc(C#N)ccc65)n[nH]c4n3)CC2)[C@@H]1N` [Compound 423, 2-(4-{6-[(3S,4S)-4-amino-3-methyl-2-oxa-8-azaspiro[4.5]decan-8-yl]-1H-pyrazolo[3,4-b]pyrazin-3-yl}-7-cyano-1,2,3,4-tetrahydroquinoxalin-1-yl)acetic acid] yielded an IC50 below 1000 nM.
Next, `C[C@@H]1OCC2(CCN(c3cnc4c(N5CCCc6c5ccnc6-c5nccs5)n[nH]c4n3)CC2)[C@@H]1N` [Compound 424]: below 1000 nM.
`CNC(=O)Cc1ccc2c(n1)CCCN2c1n[nH]c2nc(N3CCC4(CC3)CO[C@@H](C)[C@H]4N)cnc12` [Compound 425, 2-(5-{6-[(3S,4S)-4-amino-3-methyl-2-oxa-8-azaspiro[4.5]decan-8-yl]-1H-pyrazolo[3,4-b]pyrazin-3-yl}-5,6,7,8-tetrahydro-1,5-naphthyridin-2-yl)-N-methylacetamide] came in with a concentration for half-maximal inhibition (IC50) below 1000 nM.
Next, `CO/N=C/c1ccc2c(c1)[C@@H](C)CCN2c1n[nH]c2nc(N3CCC4(CC3)CO[C@@H](C)[C@H]4N)cnc12` [Compound 426, (3S,4S)-8-{3-[(4S)-6-[(1E)-(methoxyimino)methyl]-4-methyl-1,2,3,4-tetrahydroquinolin-1-yl]-1H-pyrazolo[3,4-b]pyrazin-6-yl}-3-methyl-2-oxa-8-azaspiro[4.5]decan-4-amine]: below 1000 nM.
